# Data published in patent US20240415819A1, “MACROCYCLIC COMPOUNDS AS PROTEASOME SUBUNIT BETA TYPE-5 INHIBITORS” (Lead Discovery Center GmbH, priority 2021, published 2024).
# How the values were obtained:
# HT-29 cells = experiment: CellTiter-Glo luminescent cell viability assay with HT-29 cells (72h incubation); format: cell-based, human; conditions: Homo sapiens, HT-29, HT29 cells, read-out: CTG HT29
# Procedure, shortened: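 400 cells per well in DMEM/10% FCS were dosed after 24 h and kept 72 h at 37 °C, 5% CO2. ATP-based luminescence (CellTiter-Glo) normalized to DMSO and 10 μM staurosporine controls; IC50 by dose-response fit.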
# hPMBC = experiment: Chymotrypsin-like ProteasomeGlo assay in hPBMC; format: cell-based; conditions: Homo sapiens; read-out: Pglo hPBMC
# Procedure, shortened: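 B cells isolated from human PBMC (buffy coats, density gradient, magnetic isolation). Cells treated with compound for 105 min at 37 °C, with staurosporine and DMSO included. Chymotrypsin-like proteasome activity read by luminescence with Suc-LLVY-Glo substrate to derive IC50.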
IC50 (HT-29 cells) [nM],IC50 (hPMBC) [nM],SMILES
< 100,1000 to 5000,"Cc1ccc2cc1CNC(=O)[C@H](CCc1ccccc1)NC(=O)[C@H](NC(=O)OCc1ccccc1)CC(=O)N1CCC[C@H](CCO2)C1 [Compound 291, benzyl ((13R,9S,12R)-5^4-methyl-8,11,14-trioxo-9-phenethyl-4-oxa-7,10-diaza-1(3,1)-piperidina-5(1,3)-benzenacyclotetradecaphane-12-yl)carbamate]"
< 100,< 100,"CCC(C(=O)N[C@H]1CC(=O)N2CCCC(CCOc3ccc(C)c(c3)CNC(=O)[C@H](CCc3ccccc3)NC1=O)C2)c1ccc(OC)c(OC)c1 (stereo partly drawn) [Compound 64, 2-(3,4-dimethoxyphenyl)-N-((9S,12S)-5^4-methyl-8,11,14-trioxo-9-phenethyl-4-oxa-7,10-diaza-1(3,1)-piperidina-5(1,3)-benzenacyclotetradecaphane-12-yl)butanamide]"
< 100,< 100,"Cc1ccc2cc1CNC(=O)[C@H](CCc1ccccc1)NC(=O)[C@@H](NC(=O)OCc1ccccc1)CC(=O)N1CCC[C@H](CCO2)C1 [Compound 292, benzyl ((13R,9S,12S)-5^4-methyl-8,11,14-trioxo-9-phenethyl-4-oxa-7,10-diaza-1(3,1)-piperidina-5(1,3)-benzenacyclotetradecaphane-12-yl)carbamate]"

# More lines, now with the values behind:
SMILES,IC50 (HT-29 cells) [nM],IC50 (hPMBC) [nM]
"CC(=O)N[C@H]1CC(=O)N2CCCC(CCOc3ccc(C)c(c3)CNC(=O)C(c3cnn(Cc4ccccc4)c3)NC1=O)C2 (stereo partly drawn) [Compound 565, N-((12S)-9-(1-benzyl-1H-pyrazol-4-yl)-5^4-methyl-8,11,14-trioxo-4-oxa-7,10-diaza-1(3,1)-piperidina-5(1,3)-benzenacyclotetradecaphane-12-yl)acetamide]",< 100,100 to 500
"Cc1ccc2cc1CNC(=O)[C@H](CCc1ccccc1)NC(=O)[C@@H](NC(=O)OCC1(C)COC1)CC(=O)N1CCCC(CCO2)C1 (stereo partly drawn) [Compound 293, (3-methyloxetan-3-yl)methyl ((9S,12S)-5^4-methyl-8,11,14-trioxo-9-phenethyl-4-oxa-7,10-diaza-1(3,1)-piperidina-5(1,3)-benzenacyclotetradecaphane-12-yl)carbamate]",< 100,< 100
